Results as given in ChEMBL document CHEMBL3875174, “Further investigation of Paprotrain: Towards the conception of selective and multi-targeted CNS kinase inhibitors” (Eur J Med Chem, 2016).

What was measured:
[1] = molecular target: Cyclin-dependent kinase 5/CDK5 activator 1 (Homo sapiens, UniProt Q00535); format: protein-complex assay
[2] = molecular target: Dual specificity tyrosine-phosphorylation-regulated kinase 1A (Homo sapiens, UniProt Q13627); experiment: Inhibition of GST-tagged human recombinant DYRK1A expressed in Escherichia coli using RS peptide as substrate incubated for 30 mins in presence of [gamma-33 P] ATP by liquid scintillation counting analysis
[3] = molecular target: Dual specificity protein kinase CLK4 (Homo sapiens, UniProt Q9HAZ1); experiment: Inhibition of GST-tagged human recombinant CLK4 expressed in Escherichia coli using RS peptide as substrate incubated for 30 mins in presence of [gamma-33 P] ATP by liquid scintillation counting analysis
[4] = molecular target: Dual specificity protein kinase CLK2 (Homo sapiens, UniProt P49760); experiment: Inhibition of GST-tagged human recombinant CLK2 expressed in Escherichia coli using RS peptide as substrate incubated for 30 mins in presence of [gamma-33 P] ATP by liquid scintillation counting analysis
[5] = molecular target: Glycogen synthase kinase-3 (Sus scrofa, UniProt B2LUN4+I6LNT8); experiment: Inhibition of porcine brain GSK3alpha/beta using GS-1 as substrate incubated for 30 mins in presence of [gamma-33 P] ATP by liquid scintillation counting analysis
[6] = molecular target: Dual specificity protein kinase CLK1 (Homo sapiens, UniProt P49759); experiment: Inhibition of GST-tagged human recombinant CLK1 expressed in Escherichia coli using RS peptide as substrate incubated for 30 mins in presence of [gamma-33 P] ATP by liquid scintillation counting analysis
[7] = Cytotoxicity against human KB cells assessed as growth inhibition at 1 uM after 72 hrs by MTS assay; format: toxicity, cell-based; conditions: for growth inhibition (GI): kb, 72 h, 1 µM; for inhibition at 72 h, 1 µM: KB cells, read-out: GI
[8] = molecular target: Dual specificity tyrosine-phosphorylation-regulated kinase 1B (Homo sapiens, UniProt Q9Y463); experiment: Inhibition of GST-tagged human recombinant DYRK1B expressed in Escherichia coli using RS peptide as substrate incubated for 30 mins in presence of [gamma-33 P] ATP by liquid scintillation counting analysis
[9] = Inhibition of porcine brain CK1 delta/epsilon using RRKHAAIGpSAYSITA as substrate incubated for 30 mins in presence of [gamma-33 P] ATP by liquid scintillation counting analysis; design: species or system Sus scrofa
[10] = molecular target: Dual specificity protein kinase CLK3 (Homo sapiens, UniProt P49761); experiment: Inhibition of GST-tagged human recombinant CLK3 expressed in Escherichia coli using RS peptide as substrate incubated for 30 mins in presence of [gamma-33 P] ATP by liquid scintillation counting analysis
Dual specificity protein kinase CLK3, sequence (P49761 whole entry): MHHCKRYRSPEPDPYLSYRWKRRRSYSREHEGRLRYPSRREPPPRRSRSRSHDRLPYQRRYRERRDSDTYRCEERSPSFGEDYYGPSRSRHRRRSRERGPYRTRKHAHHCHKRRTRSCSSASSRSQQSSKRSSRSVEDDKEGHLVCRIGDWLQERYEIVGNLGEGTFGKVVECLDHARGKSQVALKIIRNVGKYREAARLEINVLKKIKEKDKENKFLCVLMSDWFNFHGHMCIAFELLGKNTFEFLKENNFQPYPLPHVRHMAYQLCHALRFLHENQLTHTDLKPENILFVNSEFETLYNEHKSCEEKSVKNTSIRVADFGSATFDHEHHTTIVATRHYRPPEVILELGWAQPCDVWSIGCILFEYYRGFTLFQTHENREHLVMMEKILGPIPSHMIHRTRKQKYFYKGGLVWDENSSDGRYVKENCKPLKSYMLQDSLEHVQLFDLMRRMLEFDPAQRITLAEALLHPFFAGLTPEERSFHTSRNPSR

Dual specificity protein kinase CLK2, sequence (P49760 whole entry): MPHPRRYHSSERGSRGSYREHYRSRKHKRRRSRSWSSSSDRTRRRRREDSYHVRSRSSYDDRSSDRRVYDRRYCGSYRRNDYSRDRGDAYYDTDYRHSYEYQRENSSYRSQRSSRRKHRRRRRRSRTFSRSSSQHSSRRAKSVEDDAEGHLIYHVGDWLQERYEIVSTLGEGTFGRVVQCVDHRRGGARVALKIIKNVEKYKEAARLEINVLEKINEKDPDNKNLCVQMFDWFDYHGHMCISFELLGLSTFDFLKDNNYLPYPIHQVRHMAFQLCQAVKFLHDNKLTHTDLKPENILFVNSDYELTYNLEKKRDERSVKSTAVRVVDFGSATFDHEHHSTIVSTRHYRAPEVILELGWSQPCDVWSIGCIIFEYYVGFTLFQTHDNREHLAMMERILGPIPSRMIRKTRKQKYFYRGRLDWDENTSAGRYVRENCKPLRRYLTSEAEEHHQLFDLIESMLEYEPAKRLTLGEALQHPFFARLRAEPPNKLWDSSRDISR
Dual specificity protein kinase CLK4, sequence (Q9HAZ1 whole entry): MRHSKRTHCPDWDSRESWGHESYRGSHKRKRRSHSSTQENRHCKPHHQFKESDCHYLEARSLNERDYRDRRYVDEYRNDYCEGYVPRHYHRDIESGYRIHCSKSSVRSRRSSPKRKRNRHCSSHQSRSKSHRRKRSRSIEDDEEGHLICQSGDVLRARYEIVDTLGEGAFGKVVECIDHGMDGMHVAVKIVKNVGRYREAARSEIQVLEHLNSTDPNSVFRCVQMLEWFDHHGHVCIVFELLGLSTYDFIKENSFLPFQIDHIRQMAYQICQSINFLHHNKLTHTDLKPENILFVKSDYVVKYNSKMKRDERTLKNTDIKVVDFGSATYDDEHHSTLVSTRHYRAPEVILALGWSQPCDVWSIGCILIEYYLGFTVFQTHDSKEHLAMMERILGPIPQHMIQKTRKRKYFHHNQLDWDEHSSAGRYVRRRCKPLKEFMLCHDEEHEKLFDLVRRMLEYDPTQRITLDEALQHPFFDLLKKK
Dual specificity tyrosine-phosphorylation-regulated kinase 1B, sequence (Q9Y463 whole entry): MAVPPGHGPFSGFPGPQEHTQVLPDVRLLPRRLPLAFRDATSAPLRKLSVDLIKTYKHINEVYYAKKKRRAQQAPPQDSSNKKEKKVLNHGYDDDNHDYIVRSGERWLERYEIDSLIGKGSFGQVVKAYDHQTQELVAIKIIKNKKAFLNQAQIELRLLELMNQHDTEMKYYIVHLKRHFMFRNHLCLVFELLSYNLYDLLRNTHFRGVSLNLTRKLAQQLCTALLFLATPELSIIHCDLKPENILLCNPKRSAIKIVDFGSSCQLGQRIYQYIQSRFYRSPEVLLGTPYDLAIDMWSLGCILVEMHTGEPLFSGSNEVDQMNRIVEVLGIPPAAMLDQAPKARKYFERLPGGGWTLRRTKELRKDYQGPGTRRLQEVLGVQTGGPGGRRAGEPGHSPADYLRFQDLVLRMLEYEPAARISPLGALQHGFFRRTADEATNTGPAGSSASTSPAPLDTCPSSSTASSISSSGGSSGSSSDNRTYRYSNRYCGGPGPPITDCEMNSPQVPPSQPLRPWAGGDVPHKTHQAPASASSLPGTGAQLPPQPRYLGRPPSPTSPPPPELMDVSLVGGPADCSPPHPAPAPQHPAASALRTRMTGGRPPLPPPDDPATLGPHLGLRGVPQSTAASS
Dual specificity protein kinase CLK1, sequence (P49759 whole entry): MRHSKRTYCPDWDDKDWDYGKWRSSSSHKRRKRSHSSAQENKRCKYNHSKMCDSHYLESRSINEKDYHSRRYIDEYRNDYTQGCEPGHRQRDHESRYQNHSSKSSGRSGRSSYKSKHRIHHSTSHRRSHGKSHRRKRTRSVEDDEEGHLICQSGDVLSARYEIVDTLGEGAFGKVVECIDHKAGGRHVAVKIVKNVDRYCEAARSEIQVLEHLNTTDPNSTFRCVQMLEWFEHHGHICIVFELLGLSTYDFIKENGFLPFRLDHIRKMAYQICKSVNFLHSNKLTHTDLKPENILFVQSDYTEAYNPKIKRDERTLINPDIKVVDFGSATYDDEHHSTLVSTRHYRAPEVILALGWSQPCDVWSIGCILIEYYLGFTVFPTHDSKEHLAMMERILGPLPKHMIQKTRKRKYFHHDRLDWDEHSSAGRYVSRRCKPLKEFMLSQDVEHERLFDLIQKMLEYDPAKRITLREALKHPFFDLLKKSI
Cyclin-dependent kinase 5/CDK5 activator 1, sequence (Q00535 whole entry): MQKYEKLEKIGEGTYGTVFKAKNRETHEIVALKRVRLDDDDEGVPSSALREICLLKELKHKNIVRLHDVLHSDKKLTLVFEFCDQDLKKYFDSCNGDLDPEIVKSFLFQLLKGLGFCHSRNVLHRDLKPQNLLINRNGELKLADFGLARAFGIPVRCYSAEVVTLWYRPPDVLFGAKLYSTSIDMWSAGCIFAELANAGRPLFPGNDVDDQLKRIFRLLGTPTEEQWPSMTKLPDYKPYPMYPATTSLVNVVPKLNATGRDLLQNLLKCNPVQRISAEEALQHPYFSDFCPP
Cyclin-dependent kinase 5/CDK5 activator 1, sequence (Q15078 whole entry, further chain): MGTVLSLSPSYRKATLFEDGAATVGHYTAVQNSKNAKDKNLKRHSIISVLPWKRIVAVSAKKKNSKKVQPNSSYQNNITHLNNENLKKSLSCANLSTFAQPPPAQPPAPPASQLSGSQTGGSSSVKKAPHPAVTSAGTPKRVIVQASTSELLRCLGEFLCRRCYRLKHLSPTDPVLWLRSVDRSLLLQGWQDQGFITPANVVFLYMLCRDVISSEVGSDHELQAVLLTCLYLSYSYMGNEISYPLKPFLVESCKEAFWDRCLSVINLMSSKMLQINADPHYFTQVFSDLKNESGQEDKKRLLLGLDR

| SMILES | IC50 [1] | IC50 [2] | IC50 [3] | IC50 [4] | IC50 [5] | IC50 [6] | growth inhibition (GI) [7] | IC50 [8] | IC50 [9] | IC50 [10] | inhibition at 72 h, 1 µM [7] |
| --- | --- | --- | --- | --- | --- | --- | --- | --- | --- | --- | --- |
| COc1ccc2c(-c3ccncc3)c[nH]c2n1 | 7000 nM | 5800 nM | 110 nM | 3500 nM | > 10000 nM | 430 nM | Non-Toxic | 220 nM | > 10000 nM | 6100 nM |  |
| N#Cc1cc2cnccc2c2[nH]c3ccccc3c12 | 800 nM | 50 nM |  |  | 1000 nM |  |  |  |  |  |  |
| N#Cc1cc2ccccc2c2[nH]c3ccccc3c12 | > 10000 nM | 2300 nM |  |  | > 10000 nM | 1400 nM |  |  | > 10000 nM |  |  |
| COc1ccc2c(c1)[nH]c1c3ccncc3cc(CN)c21 | 5600 nM | 870 nM | 270 nM | 1600 nM | > 10000 nM | 830 nM |  | 910 nM | > 10000 nM | 7000 nM | 85% |
| COc1ccc2cc(-c3ccncc3)[nH]c2n1 | > 10000 nM | > 10000 nM |  |  | > 10000 nM | 2900 nM |  |  | > 10000 nM |  |  |
| COc1ccc2[nH]c3c4ccncc4cc(C#N)c3c2c1 | 800 nM | 370 nM | 57 nM | 110 nM | 1700 nM | 51 nM | Non-Toxic | 220 nM | > 10000 nM | 710 nM |  |
| COc1cccc2c1[nH]c1c3ccncc3cc(C#N)c21 | 460 nM | 27 nM | 40 nM | 44 nM | 2000 nM | 41 nM |  | 28 nM | > 10000 nM | 180 nM | 9% |
| COc1ccc2[nH]cc(/C(C#N)=C/c3cnccc3C)c2c1 | > 10000 nM | 5500 nM |  |  | > 10000 nM | 4000 nM |  |  | > 10000 nM |  |  |
| N#C/C(=C\c1ccncc1)c1c[nH]c2ccccc12 | > 10000 nM | > 10000 nM |  |  | > 10000 nM |  |  |  |  |  |  |
| N#Cc1cc2cnccc2c2[nH]c3ccc(Cl)cc3c12 | > 10000 nM | 4000 nM |  |  | > 10000 nM | > 10000 nM |  |  | > 10000 nM |  |  |
| COc1cccc2[nH]c3c4ccncc4cc(C#N)c3c12 | > 10000 nM | 850 nM | 100 nM | 4000 nM | > 10000 nM | 620 nM |  | > 10000 nM | > 10000 nM | > 10000 nM | 13% |
| N#C/C(=C\c1cccnc1)c1c[nH]c2ccc(Cl)cc12 | > 10000 nM | 3300 nM |  |  | > 10000 nM | 2000 nM |  |  | > 10000 nM |  |  |
| COc1ccc2c(n1)[nH]c1c3ccncc3cc(C#N)c21 | > 10000 nM | 200 nM | 47 nM | 4600 nM | > 10000 nM | 86 nM | Non-Toxic | 93 nM | > 10000 nM | > 10000 nM |  |
| COc1cccc2c1[nH]c1c3ccncc3cc(C(N)=O)c21 | 9000 nM | 600 nM | 110 nM | 3500 nM | 8800 nM | 570 nM | Non-Toxic | 460 nM | > 10000 nM | 6100 nM |  |
| COc1ccc2[nH]c3c(=O)[nH]c(-c4cccnc4)c(C#N)c3c2c1 | > 10000 nM | 4300 nM | 21 nM | 610 nM | > 10000 nM | 47 nM | Non-Toxic | 1100 nM | > 10000 nM | > 10000 nM |  |
| COc1cccc2c(/C(C#N)=C/c3cccnc3)c[nH]c12 | > 10000 nM | 1200 nM |  |  | > 10000 nM | 1500 nM |  |  | > 10000 nM |  |  |
| COc1ccc2c(c1)[nH]c1c3ccncc3cc(C#N)c21 | 440 nM | 25 nM | 33 nM | 80 nM | 680 nM | 23 nM |  | 34 nM | > 10000 nM | 190 nM | 64% |
| COc1cccc2[nH]cc(/C(C#N)=C/c3cccnc3)c12 | > 10000 nM | 6000 nM |  |  | > 10000 nM | 3000 nM |  |  | > 10000 nM |  |  |
| N#Cc1cc2ccccn2c2nc3ccccc3c1-2 | > 10000 nM | > 10000 nM |  |  | > 10000 nM | > 10000 nM |  |  | > 10000 nM |  |  |
| N#Cc1cc2ccncc2c2[nH]c3ccccc3c12 | 6000 nM | 370 nM | 180 nM | 1100 nM | 2400 nM | 170 nM |  | 260 nM | > 10000 nM | 1800 nM | 3% |
| COc1ccc2c(c1)[nH]c1c3ccncc3cc(CNC(C)=O)c21 | 6000 nM | 970 nM | 690 nM | 2800 nM | > 10000 nM | 2400 nM |  | 900 nM | > 10000 nM | 8000 nM | 16% |

| SMILES | IC50 [1] | IC50 [2] | IC50 [3] | IC50 [4] | IC50 [5] | IC50 [6] | growth inhibition (GI) [7] | IC50 [8] | IC50 [9] | IC50 [10] | inhibition at 72 h, 1 µM [7] |
| --- | --- | --- | --- | --- | --- | --- | --- | --- | --- | --- | --- |
| COc1ccc2c(c1)[nH]c1c3c(OC)cncc3cc(C#N)c21 | 6400 nM | 18 nM | 30 nM | 150 nM | 140 nM | 23 nM |  | 42 nM | > 10000 nM | 320 nM | 38% |
| COc1ccc2[nH]cc3c2c1C(C)NC(c1cccnc1)=C3C#N (centres undefined) | 6400 nM | 5000 nM |  |  | > 10000 nM | > 10000 nM |  |  | > 10000 nM |  |  |
| COc1ccc2c(c1)[nH]c1c3ccncc3cc(C(N)=O)c21 | 4500 nM | 2000 nM |  |  | 9000 nM | 1600 nM |  |  | > 10000 nM |  |  |
| Nc1nc2ccccc2c2cc3cnccc3cc12 | > 10000 nM | > 10000 nM |  |  | > 10000 nM | 2100 nM |  |  | > 10000 nM |  |  |
| COc1ccc2c(c1)[nH]c1c3c(OC)cncc3cc(C(N)=O)c21 | 1600 nM | 3300 nM |  |  | > 10000 nM | 1600 nM |  |  | > 10000 nM |  |  |
| COc1ccc2[nH]cc(/C(C#N)=C(\N)c3cccnc3)c2c1 | > 10000 nM | > 10000 nM |  |  | > 10000 nM | > 10000 nM |  |  | > 10000 nM |  |  |
| N#Cc1cc2ncccc2c2[nH]c3ccccc3c12 | > 10000 nM | 10000 nM |  |  | > 10000 nM | > 10000 nM |  |  | > 10000 nM |  |  |
| N#C/C(=C\c1cccnc1)c1c[nH]c2ccc(F)cc12 | > 10000 nM | 1800 nM |  |  | > 10000 nM | 1700 nM |  |  | > 10000 nM |  |  |
| N#C/C(=C\c1cccnc1)c1c[nH]c2ccccc12 | > 10000 nM | 5500 nM |  |  | > 10000 nM |  |  |  |  |  |  |
| N#C/C(=C\c1ccccc1)c1c[nH]c2ccccc12 | > 10000 nM | > 10000 nM |  |  | > 10000 nM |  |  |  |  |  |  |
| COc1ccc2c(c1)[nH]c1c(C)nccc12 [HARMINE] |  |  |  |  | > 10000 nM |  |  |  | 1500 nM |  |  |
| COc1ccc2[nH]c3c4c(OC)cncc4cc(C#N)c3c2c1 | 930 nM | 600 nM |  |  | 4000 nM | 56 nM | Non-Toxic |  | > 10000 nM |  |  |
| N#C/C(=C/c1cccnc1)c1c[nH]c2ccccc12 | > 10000 nM | > 10000 nM |  |  | > 10000 nM | > 10000 nM |  |  |  |  |  |
| COc1ccc2[nH]cc(/C(C#N)=C/c3cccnc3)c2c1 | > 10000 nM | 6300 nM |  |  | > 10000 nM |  |  |  |  |  |  |
| COc1cncc(/C=C(\C#N)c2c[nH]c3ccc(OC)cc23)c1 | > 10000 nM | > 10000 nM |  |  | > 10000 nM | 2300 nM |  |  | > 10000 nM |  |  |
| COc1ccc2c(/C(C#N)=C/c3cccnc3)c[nH]c2c1 | > 10000 nM | 1600 nM |  |  | > 10000 nM | 1300 nM |  |  | > 10000 nM |  |  |
| COc1ccc2c(c1)[nH]c1c3ccncc3cc(CN(C)C)c21 | 5400 nM | 670 nM |  |  | > 10000 nM | 1400 nM |  |  | > 10000 nM |  | 37% |
| N#Cc1cc2cccnc2c2[nH]c3ccccc3c12 | > 10000 nM | > 10000 nM |  |  | > 10000 nM |  |  |  |  |  |  |
| COc1ccc2c(CC#N)c(-c3ccncc3)[nH]c2n1 | > 10000 nM | 7300 nM |  |  | > 10000 nM | 1100 nM |  |  | > 10000 nM |  |  |
| N#C/C(=C\c1ccccn1)c1c[nH]c2ccccc12 | > 10000 nM | > 10000 nM |  |  | > 10000 nM |  |  |  |  |  |  |
